Assay results as given in patent publication US20050059608A1, “Pharmaceutical compounds” (priority 2001, published 2005).

Columns and labels:
[1] = Hydrolysis in 10% rabbit liver homogenate; type: in vitro ADME; settings: 10% rabbit liver homogenate (9,000 g supernatant), pH 7.4, 37° C., read-out: t1/2 of hydrolysis in rabbit liver homogenate
Protocol: (§1) The HPLC system used consisted of a Beckman System Gold Programmable Solvent Module 126, Beckman System Gold Detector Module 166 with variable wavelength UV detector (set at 254 nm) and a Beckman System Gold Autosampler 507e. Separations were accomplished on a Purospher RP-18 reverse-phase column, 12.5 cm×4.0 mm i.d., 5 μm (Merck, Darmstadt, Germany). The chromatographic conditions were as follows: injection volume, 50 μl; column temperature, 40° C.; flow rate, gradient/isocratic at 1.0 ml/min. The mobile phase consisted of various proportions of methanol/water mixture (90:10) and a citrate/phosphate buffer pH 2.2.
The rabbit liver was homogenized with approximately four equivalent volumes of isotonic phosphate buffer at pH 7.4 using an X-1020 homogenizer (Ystral, Germany). The homogenate was centrifuged for 90 min at 9,000 g and 4° C. with a Biofuge 28 RS centrifuge (Heraeus Instruments, Germany). The supernatant was stored at −80° C. until analysis. An appropriate amount was dissolved in one volume of preheated 20% liver homogenate. The solution was then incubated at 37° C. At appropriate time intervals, samples (300 μl) were withdrawn. Samples were pretreated with 300 μl of methanol to terminate enzymatic activity. […] The residue was dissolved in 400 μl of the mobile phase buffer and analyzed by HPLC.

[2] = Hydrolysis in aqueous solution (chemical hydrolysis in phosphate buffer); type: physicochemical; settings: aqueous phosphate buffer 0.16 M; for half-life: read-out: Pseudo-first order half-time (t1/2) for chemical hydrolysis (converted)
Protocol: as §1
The rate of chemical hydrolysis was determined in aqueous phosphate buffer solution (0.16 M) at pH 7.4, 5.0, and 1.2 at 37° C. An appropriate amount was dissolved in 10 ml of preheated buffer and the solution was placed in a thermostatically controlled water bath at 37° C. At appropriate time intervals, samples were taken and analyzed for the remaining codrug by HPLC. Pseudo-first order half-time (t1/2) for the hydrolysis was calculated from the slope of the linear portion of the plotted logarithm of remaining codrug vs. time.

[3] = after oral administration; cited from earlier work

Structure (SMILES) | half-life [1] [min] | Pseudo-first order half-time (t1/2) for chemical hydrolysis ([2]; pH 1.2, 37° C.) [h] | half-life ([2]; pH 5.0, 37° C.) [min] | half-life ([2]; pH 7.4, 37° C.) [min] | bioavailability of entacapone [3]
CCN(CC)C(=O)/C(C#N)=C/c1cc(OC(=O)N[C@@H](Cc2ccc(O)c(O)c2)C(=O)OC)c(O)c([N+](=O)[O-])c1 [Example 1, (S)-2-{5-[(E)-2-cyano-2-(diethylcarbamoyl)vinyl]-2-hydroxy-3-nitrophenoxycarbonylamino}-3-(3,4-dihydroxyphenyl)propionic acid methyl ester] | 7 | 12.1 | 84 | 66 | –
CCN(CC)C(=O)/C(C#N)=C/c1cc(O)c(O)c([N+](=O)[O-])c1 [entacapone, (E)2-cyano-N,N-diethyl-3-(3,4-dihydroxy-5-nitrophenyl)propenamide] | – | – | – | – | 29-46%
